{"source": "paper PMC6161601", "about": "(Journal of Enzyme Inhibition and Medicinal Chemistry, 2018)", "key": {"[1]": {"biological_target": "T1, human erythrocyte acetylcholinesterase (AChE) (Homo sapiens, UniProt P22303)", "T1 construct": "from tissue; host or cells: haemolysed erythrocytes of healthy human donors", "T1 sequence (P22303 other isoform, or with tags, fused parts or gaps)": "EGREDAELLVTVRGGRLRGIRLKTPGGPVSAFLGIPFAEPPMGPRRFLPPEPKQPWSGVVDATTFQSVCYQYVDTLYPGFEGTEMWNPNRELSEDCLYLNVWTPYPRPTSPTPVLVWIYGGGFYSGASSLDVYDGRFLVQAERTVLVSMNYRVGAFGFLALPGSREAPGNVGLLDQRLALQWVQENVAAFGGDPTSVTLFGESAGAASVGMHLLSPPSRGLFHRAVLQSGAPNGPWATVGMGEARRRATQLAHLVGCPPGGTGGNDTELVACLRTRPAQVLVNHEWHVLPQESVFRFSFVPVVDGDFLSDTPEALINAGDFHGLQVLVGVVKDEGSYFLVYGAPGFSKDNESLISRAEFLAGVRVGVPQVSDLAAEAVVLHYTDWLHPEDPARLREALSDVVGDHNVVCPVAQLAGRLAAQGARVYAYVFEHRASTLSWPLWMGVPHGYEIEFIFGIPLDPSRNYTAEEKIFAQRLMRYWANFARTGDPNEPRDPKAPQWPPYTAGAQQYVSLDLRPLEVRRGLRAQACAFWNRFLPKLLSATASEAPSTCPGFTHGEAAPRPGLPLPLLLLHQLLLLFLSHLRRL", "assay": "biochemical", "protocol": "(§1) Blood samples were obtained from healthy donors from the Voievodal Specialized Hospital in Łódź, Poland (Wojewódzki Specjalistyczny Szpital im. Dr W. Biegańskiego w Łodzi). The blood was collected into vacuum tubes containing sodium citrate. Erythrocytes were separated from plasma by centrifugation (3000 × g, 10 min, 20 °C) with a Micro 22 R centrifuge (Hettich ZENTRIFUGEN, Tuttlingen, Germany) and washed three times with 0.9% saline. Afterwards, red cells were haemolysed by freezing and stored at a temperature of –30 °C; before each experiment, they were restored at 37° C for 15 min and used to determine AChE activity. […] The studies on the biological material were approved by the Bioethics Committee of the Medical University of Lodz (RNN/27/18/KE).\n(§2) The activity of both cholinesterases (AChE and BuChE) were conducted using a spectrophotometric method developed by Ellman with previously described modifications[25]^,[30]. […] 400-fold diluted solution of haemolysed erythrocytes or diluted plasma (200 times) was incubated for 15 min (37° C) with DTNB and tested compound at an appropriate concentration, and the reaction was started by addition of substrate (ATC or BTC). The final volume of a sample was 500 µL.\n(§3) AChE Selectivity Index (SI) was calculated with the aid of the following formula: SI = IC50 of BChE/IC50 of AChE. In turn BuChE SI was defined as IC50 of AChE/IC50 of BChE. Linear regression (Hanes–Woolf plots) were used to estimate the maximal velocity (Vmax) and the Michaelis constant (Km)."}, "[2]": {"biological_target": "T2, human plasma butyrylcholinesterase (BuChE) (Homo sapiens, UniProt P06276)", "T2 construct": "Plasma for determination of BuChE activity was obtained by centrifuging the blood; from tissue; host or cells: plasma of healthy human donors", "T2 sequence (P06276 29-602)": "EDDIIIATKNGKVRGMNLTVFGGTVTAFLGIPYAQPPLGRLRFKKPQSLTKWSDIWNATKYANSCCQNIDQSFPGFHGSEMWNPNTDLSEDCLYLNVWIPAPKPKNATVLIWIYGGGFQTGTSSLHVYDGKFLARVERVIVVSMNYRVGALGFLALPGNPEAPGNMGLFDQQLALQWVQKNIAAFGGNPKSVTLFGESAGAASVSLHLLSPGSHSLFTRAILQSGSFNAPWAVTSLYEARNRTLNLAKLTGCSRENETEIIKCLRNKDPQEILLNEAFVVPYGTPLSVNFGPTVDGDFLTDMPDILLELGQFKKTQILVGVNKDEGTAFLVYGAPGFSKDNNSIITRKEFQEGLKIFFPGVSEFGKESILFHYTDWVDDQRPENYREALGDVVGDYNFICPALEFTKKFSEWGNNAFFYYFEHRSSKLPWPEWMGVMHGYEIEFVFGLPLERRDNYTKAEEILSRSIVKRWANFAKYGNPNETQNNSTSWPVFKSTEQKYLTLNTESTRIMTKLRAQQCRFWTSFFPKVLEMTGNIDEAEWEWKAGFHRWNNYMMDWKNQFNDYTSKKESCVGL", "assay": "biochemical", "protocol": "as §1, §2, §3"}, "[3]": {"biological_target": "T1, human erythrocyte acetylcholinesterase (AChE)", "assay": "Kinetic parameters and type of AChE inhibition (Hanes–Woolf)", "format": "biochemical", "conditions": "for Vmax(i) AChE: mean ± SD", "protocol": "(§4) The absorbance was recorded at λ = 436 nm using a CECIL 2021 spectrophotometer (CECIL Instruments Limited, Cambridge, UK) with a thermostatic water flow (temperature 37° C).\nas §3\n(§5) To establish the type of inhibition, additional experiments were conducted with various concentrations of substrates (ATC, BTC), and the kinetic parameters of the enzymatic reactions were obtained using Hanes–Woolf equation, which is a graphical representation of enzyme kinetics in which the ratio of the initial substrate concentration [S] to the reaction velocity v is plotted against [S]. […]"}, "[4]": {"biological_target": "T2, human plasma butyrylcholinesterase (BuChE)", "assay": "Kinetic parameters and type of BuChE inhibition (Hanes–Woolf)", "format": "biochemical", "conditions": "for Vmax(i) BuChE: mean ± SD", "protocol": "as §4, §3, §5"}, "[5]": {"biological_target": "T3, BuChE (Homo sapiens, UniProt P06276)", "T3 construct": "Plasma for determination of BuChE activity was obtained by centrifuging the blood; from tissue; host or cells: plasma of healthy human donors", "T3 sequence (P06276 29-602)": "as above", "assay": "BuChE inhibition with excess of substrate (BTC)", "format": "biochemical", "conditions": "for inhibition at 375 µM: compound at 375 µmol/L"}, "[6]": {"biological_target": "T4, Aβ42 peptide (Homo sapiens, UniProt P05067)", "T4 construct": "Beta-amyloid (Aβ 1–42) aggregation studies were conducted using SensoLyte ThT Aβ42 Aggregation kit; purchased AnaSpec, Inc, Fremont, CA", "T4 sequence (P05067 672-713)": "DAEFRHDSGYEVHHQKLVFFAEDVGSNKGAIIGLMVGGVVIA", "assay": "Beta-amyloid (Aβ 1–42) aggregation, SensoLyte ThT kit", "format": "biochemical", "protocol": "Beta-amyloid (Aβ 1–42) aggregation studies were conducted using SensoLyte ThT Aβ42 Aggregation kit (AnaSpec, Inc, Fremont, CA). Aβ42 peptide was dissolved in cold (4 °C) assay buffer and left to hydrate for a few minutes. The solution was spined at 10,000 rpm for 5 min at 4 °C to centrifuge out any precipitated material. […] The final volume of the test samples was 100 µL. Simultaneously, the positive control and negative control containing morin at the final concentration of 100 µmol/L were established. […] The measurements of fluorescence intensity expressed as relative fluorescence units (RFU) were taken for 90 min with 5 min intervals. The fluorescence intensity measured for positive control equals 100% of Aβ aggregation and was used for estimation of inhibition properties of tested biguanides.\nStatistical analysis of data obtained in Aβ aggregation assay was conducted with a commercially available package (GraphPad Prism 5, La Jolla, CA). The results were expressed as the mean ± standard deviation (SD) of measurements conducted in triplicates or quadruplicates. One or two-way ANOVA and subsequent post hoc tests were used for intergroup comparisons. The results were considered significant at p values lower than 0.05."}, "[7]": {"assay": "Intracellular uptake in in vitro cellular model (unpublished data)", "format": "in vitro ADME", "conditions": "depending on the cell line"}, "[8]": {"tested_on": "human umbilical vein endothelial cells (HUVECs)", "assay": "HUVEC viability and integrity, real-time electrical impedance system (unpublished data)", "format": "cell-based", "protocol": "At lower concentrations of substrate, BuChE activity is related to Michaelis–Menten kinetics and its enzymatic activity is based on the formation of an enzyme–substrate complex [ES]. At higher substrate levels (> 1 mM) BuChE presents greater activity related to the formation of a substrate-activated complex [SES][33]. […] This fact is of vital importance when studying BuChE inhibitors as in vivo the concentration of ACh in the synaptic cleft is estimated to be about 5 mM^33, which imply that substrate activated form of BuChE is present in the synaptic cleft."}, "[9]": {"biological_target": "T5, AChE (Homo sapiens, UniProt P22303)", "T5 construct": "400-fold diluted solution of haemolysed erythrocytes or diluted plasma (200 times) was incubated; from tissue; host or cells: haemolysed erythrocytes of healthy human donors", "T5 sequence (P22303 other isoform, or with tags, fused parts or gaps)": "as the sequence (P22303 other isoform, or with tags, fused parts or gaps) above", "format": "biochemical"}, "[10]": {"tested_on": "erythrocytes", "conditions": "6–1500 μmol/L; cited from earlier work"}, "[11]": {"biological_target": "T2, human plasma butyrylcholinesterase (BuChE)", "conditions": "published previously; cited from earlier work"}}, "note": "Where “and” joins values, the source holds several entries; their conditions need not be identical. Equal entries are not always repeated. Entries after “also recorded” stand apart in the source; their conditions may differ. Where two headings read alike, the source gives them in different places.", "data": [{"smiles": "CN(C)C(=N)N=C(N)NS(=O)(=O)c1ccc(C(F)(F)F)cc1[N+](=O)[O-]", "note": "[Compound 5]", "values": [{"measurement": "SI AChE", "setting": "[1]; IC50 BChE/IC50 AChE", "result": 3.23}, {"measurement": "inhibition at 150 µM", "setting": "[1]; compound at 150.0 µmol/L", "result": "35 ± 7.18", "unit": "%"}, {"measurement": "IC50", "setting": "[1]; human erythrocyte AChE, mean ± SD of three independent experiments", "result": "212 ± 48.3", "unit": "µM"}, {"measurement": "SI BuChE", "setting": "[2]; IC50(AChE)/IC50(BChE)", "result": 0.31}, {"measurement": "IC50", "setting": "[2]; human plasma BuChE, mean ± SD of three independent experiments", "result": "686 ± 86.4", "unit": "µM"}, {"measurement": "I: type of inhibition, AChE", "setting": "[3]", "result": "M (M: mixed type)"}, {"measurement": "type of AChE inhibition", "setting": "[3]", "result": "mixed-type; also recorded: mixed inhibition; also recorded: mixed way"}, {"measurement": "vmax AChE, mean ± SD", "setting": "[3]; B: inhibitor at 1/3 of IC50", "result": "175.32 ± 33.25", "unit": "mA/min"}, {"measurement": "Vmax(i) AChE", "setting": "[3]; B: inhibitor at 1/3 of IC50", "result": "0.175 ± 0.033", "unit": "A/min"}, {"measurement": "vmax AChE, mean ± SD", "setting": "[3]; C: inhibitor at IC50", "result": "146.12 ± 40.50", "unit": "mA/min"}, {"measurement": "Vmax(i) AChE", "setting": "[3]; C: inhibitor at IC50", "result": "0.146 ± 0.040", "unit": "A/min"}, {"measurement": "vmax AChE, individual experiments B1–B3", "setting": "[3]; inhibitor at 1/3 of IC50", "result": "183.000 mA/min and 204.073 mA/min and 138.914 mA/min"}, {"measurement": "vmax AChE, individual experiments C1–C3", "setting": "[3]; inhibitor at IC50", "result": "173.750 mA/min and 165.000 mA/min and 99.631 mA/min"}, {"measurement": "I: type of inhibition, BuChE", "setting": "[4]", "result": "M (M: mixed type)"}, {"measurement": "type of BuChE inhibition", "setting": "[4]", "result": "mixed inhibition; also recorded: mixed manner; also recorded: Mixed type"}, {"measurement": "vmax BuChE, mean ± SD", "setting": "[4]; B: inhibitor at 1/3 of IC50", "result": "242.44 ± 12.47", "unit": "mA/min"}, {"measurement": "Vmax(i) BuChE", "setting": "[4]; B: inhibitor at 1/3 of IC50", "result": "0.242 ± 0.012", "unit": "A/min"}, {"measurement": "vmax BuChE, mean ± SD", "setting": "[4]; C: inhibitor at IC50", "result": "202.78 ± 2.42", "unit": "mA/min"}, {"measurement": "Vmax(i) BuChE", "setting": "[4]; C: inhibitor at IC50", "result": "0.202 ± 0.002", "unit": "A/min"}, {"measurement": "vmax BuChE, individual experiments B1–B3", "setting": "[4]; inhibitor at 1/3 of IC50", "result": "243.730 mA/min and 229.384 mA/min and 254.233 mA/min"}, {"measurement": "vmax BuChE, individual experiments C1–C3", "setting": "[4]; inhibitor at IC50", "result": "204.771 mA/min and 200.088 mA/min and 203.508 mA/min"}, {"measurement": "BuChE inhibition, maximal", "setting": "[5]; BTC 2.5 μmol/mL, various compound concentrations (Figure 8B)", "result": "up to 31.89 ± 6.22%"}, {"measurement": "inhibition at 375 µM", "setting": "[5]; BTC 0.75 mmol/L", "result": "27.5 ± 8.61", "unit": "%"}, {"measurement": "inhibition at 375 µM", "setting": "[5]; BTC 2.5 mmol/L", "result": "≤ 15.6", "unit": "%"}, {"measurement": "activity vs morin 100 µmol/L", "setting": "[6]; 100 µmol/L, two-way ANOVA", "result": "significantly lower in comparison with morin"}, {"measurement": "inhibitory property vs morin 100 µmol/L", "setting": "[6]; 200 µmol/L, two-way ANOVA, p > 0.05", "result": "comparable with those of morin"}, {"measurement": "inhibition at 200 µM", "setting": "[6]; 200 µmol/L, vs control", "result": "~20", "unit": "%"}, {"measurement": "Aβ aggregation decreased up to", "setting": "[6]; 100 and 200 µmol/L, after 60 min of reaction initiation", "result": "~80", "unit": "%"}, {"measurement": "intracellular uptake relative to metformin", "setting": "[7]", "result": "70–80 fold"}, {"measurement": "decrease in HUVEC adhesion and viability", "setting": "[8]; 300 μmol/L, 12–72 h of incubation", "result": "~20", "unit": "%"}, {"measurement": "effect on HUVEC viability", "setting": "[8]; 6–100 μmol/L", "result": "did not affect cell viability"}, {"measurement": "type of AChE inhibition", "setting": "[9]; at 1/2 IC50 for AChE", "result": "mixed-type"}, {"measurement": "Vmax AChE", "setting": "[9]; each at 1/2 IC50 for AChE: metformin 1175, donepezil 0.0125, compound 5 106.0 µmol/L, alone or in mixture", "result": "0.206 ± 0.008", "unit": "A/min"}, {"measurement": "erythrocytes membrane disintegration", "setting": "[10]", "result": "does not contribute to the erythrocytes membrane disintegration"}]}, {"smiles": "[H]/N=C(/N)N/C(=N/[H])NCCc1ccccc1", "note": "[Phenformin, phenformin, reference compound]", "values": [{"measurement": "inhibition at 150 µM", "setting": "[2]; at 150 µmol/L", "result": "44.7 ± 1.23", "unit": "%"}, {"measurement": "IC50", "setting": "[11]", "result": "259 ± 31", "unit": "µM"}]}]}
